Data: patent US20210330756A1, “Acetylation of Miro1” (University of South Carolina, priority 2020, published 2021)

Experiments:
[1] = test system: growth cones of adult DRG neurons; test: Growth cone area/size of DRG sensory axons (DIC imaging); assay type: cell-based, rat
Method: HDAC6 inhibition increases growth cone size of sensory axons. Given our previous work showing that HDAC6 inhibition allows axons to grow on MAG and CSPG substrates (Rivieccio et al., 2009; Butler et al., 2010), we asked how inhibition of HDAC6 alters axon growth in cultures of adult dorsal root ganglion (DRG) neurons. […] (A) Quantification of neurite length for dissociated DRGs cultured on laminin with addition of HDAC6 inhibitor TubA (10 μm) versus vehicle control (DMSO) over 1 h is shown as average fold-change relative to vehicle±SEM (n≥95 neurons across three independent experiments; NS by one-way ANOVA with Bonferroni post hoc). (B and C) show representative DIC images of distal axons from DRG neurons cultured as in A are shown (B). 1-h TubA treatment appears to increase growth cone size. Analyses of growth cone area across multiple experiments show a significant increase in area after TubA treatment (C). Values are average fold-change±SEM (n≥26 neurons over at least three culture preparations; ***, P≤0.005 by one-way ANOVA with Bonferroni post hoc; scale bar=5 μm; 40×/1.3 NA objective used). […] Prominent HDAC6 signals are seen in distal axons and growth cones (arrows) regardless of TubA exposure. […]
NF-stained cultures were used for neurite growth analyses. […] The growth cone area was measured using ImageJ software from these annotated DIC images. […]

[2] = test system: sciatic nerve axonal mitochondria; test: In vivo imaging of axonal mitochondrial transport in sciatic nerve; design: species or system mouse
Method: Together, these experiments indicate that HDAC6 activity impacts axonal mitochondrial transport in vitro and in vivo.
Sciatic nerves were exposed in live, isofluorane-anaesthetized animals (female C57BL6/J mice aged 41-42 d after birth) as previously reported (Gibbs et al., 2016; Sleigh and Schiavo, 2016). Briefly, 10-μ1 glass micropipettes (Drummond Scientific; 5-000-1001-X10) were pulled (Mohan et al., 2015) and used to inject 2 μl of 1.5 mM TubA or DMSO (Sigma-Aldrich; D2650) vehicle control in sterile saline (0.9% wt/vol) into the proximal aspect of the exposed sciatic nerve. 2 μM tetramethylrhodamine, ethyl ester, perchlorate (Thermo Fisher Scientific; T669), and 0.1% (wt/vol) bromophenol blue (Sigma-Aldrich; B5525) were included in the injected solution to label mitochondria and confirm successful injection beneath the perineurium, respectively.
Body temperature was maintained using a heat pad during surgery and drug incubation. Sciatic nerves were imaged from 20 to 90 min after injection using an inverted LSM 780 laser scanning microscope (Zeiss) Plan-Apochromat 63×/1.4 NA Oil DIC M27 objective within an environmental chamber prewarmed and set to 37° C. An area containing labeled axons was selected and imaged for 444-1,000 s at 100×digital zoom every ˜4 s (1,024×1,024 pixels, 0.5-μs pixel dwell time, 1% laser power). Four animals were imaged per day (two per treatment). Image series were converted into AVI files, and mitochondrial dynamics were assessed using Kinetic Imaging Software. Mitochondria were included in analyses when they could be tracked for at least five consecutive frames. At least 10 mitochondria (mean of 49.1) across at least three axons (mean of 4.38) per animal were tracked, and all analyses were performed blinded to treatment.

[3] = test system: rat embryonic cortical neurons; details: 10 μM; cited from earlier work

Structure (SMILES): CN1CCc2c(c3ccccc3n2Cc2ccc(C(=O)NO)cc2)C1 [TubA, tubastatin]
- time after exposure at which growth cone enlargement was apparent ([1]; 10 μM TubA, time-lapse DIC): ≤ 10 min
- growth cone size vs vehicle controls ([1]; 10 μM, 1 h, laminin): significantly larger growth cones
- pausing of moving mitochondria ([2]; retrogradely versus anterogradely moving, after TubA): significantly increased pausing for retrogradely versus anterogradely moving mitochondria
- ratio of anterogradely to retrogradely moving axonal mitochondria ([2]; sciatic nerve injection, 2 μl of 1.5 mM, in vivo imaging): increased
- significance of antero/retrograde ratio and speed of movement vs vehicle control ([2]; sciatic nerve injection, in vivo imaging): neither this nor the speed of movement showed significant differences
- histone acetylation [3]: no effect on histone acetylation
- levels of acetyl (Ac) α-tubulin [3]: increases levels of acetyl (Ac) α-tubulin
